Measured values: ChEMBL document CHEMBL3885861, “Open TG-GATES”

Species: Rattus norvegicus
Assay: Open TG-GATES - Regimen: Single
Format: toxicity, organism-based, Sprague-Dawley
Design: regimen Single, gender Male, age 6 weeks
Details: in vivo, po, 0 mg/kg, route gavage, dose level Control; for APTT / Bas / Eos / Fbg / Hb / Ht / Lym / MCH / MCHC / MCV / Mono / Neu / PT / Plat / RBC / Ret / WBC: tissue Blood; for KIDNEY_L / KIDNEY_R / KIDNEY_TOTAL: tissue Kidney; for LIVER: tissue Liver; for A/G / ALP / ALT / AST / BUN / CRE / Ca / Cl / DBIL / GLC / IP / K / LDH / Na / PL / RALB / TBIL / TC / TG / TP / gamma-GTP: tissue Plasma

CC(C)C(=O)Nc1ccc([N+](=O)[O-])c(C(F)(F)F)c1 [FLUTAMIDE]
TERMINAL_BW (3 h): 211.8 g | APTT (3 h): 18.5 s | Bas (3 h): 0% | Eos (3 h): 1% | Fbg (3 h): 211.2 mg/dL | Hb (3 h): 13.4 g/dL | Ht (3 h): 39% | Lym (3 h): 77% | MCH (3 h): 22.2 pg | MCHC (3 h): 34.4% | MCV (3 h): 64.5 fL | Mono (3 h): 3.6% | Neu (3 h): 17.4% | PT (3 h): 12.7 s | Plat (3 h): 126.5 x10_4/uL | RBC (3 h): 604.2 x10_4/ul | Ret (3 h): 8.3% | WBC (3 h): 99.3 x10_2/uL | KIDNEY_L (3 h): 1 g | KIDNEY_R (3 h): 1 g | KIDNEY_TOTAL (3 h): 1.9 g | LIVER (3 h): 10 g | A/G (3 h): 1.7 | ALP (3 h): 1054 IU/L | ALT (3 h): 39.4 IU/L | AST (3 h): 69.6 IU/L | BUN (3 h): 10.8 mg/dL | CRE (3 h): 0.3 mg/dL | Ca (3 h): 11 mg/dL | Cl (3 h): 103.2 meq/L | DBIL (3 h): 0.3 mg/dL | GLC (3 h): 193.4 mg/dL | IP (3 h): 9.1 mg/dL | K (3 h): 3.9 meq/L | LDH (3 h): 165.4 IU/L | Na (3 h): 140 meq/L | PL (3 h): 176 mg/dL | RALB (3 h): 3.5 g/dL | TBIL (3 h): 0.4 mg/dL | TC (3 h): 83.2 mg/dL | TG (3 h): 186 mg/dL | TP (3 h): 5.5 g/dL | gamma-GTP (3 h): 1.4 IU/L | TERMINAL_BW (6 h): 207.5 g | APTT (6 h): 18.8 s | Bas (6 h): 0% | Eos (6 h): 0.6% | Fbg (6 h): 228 mg/dL | Hb (6 h): 13.7 g/dL | Ht (6 h): 39.6% | Lym (6 h): 80% | MCH (6 h): 21.9 pg | MCHC (6 h): 34.5% | MCV (6 h): 63.3 fL | Mono (6 h): 3.2% | Neu (6 h): 15% | PT (6 h): 12.5 s | Plat (6 h): 115.8 x10_4/uL | RBC (6 h): 625.8 x10_4/ul | Ret (6 h): 7.2% | WBC (6 h): 108.6 x10_2/uL | KIDNEY_L (6 h): 0.9 g | KIDNEY_R (6 h): 0.9 g | KIDNEY_TOTAL (6 h): 1.9 g | LIVER (6 h): 9 g | A/G (6 h): 1.8 | ALP (6 h): 1030.8 IU/L | ALT (6 h): 37.6 IU/L | AST (6 h): 65.8 IU/L | BUN (6 h): 8.4 mg/dL | CRE (6 h): 0.3 mg/dL | Ca (6 h): 10.7 mg/dL | Cl (6 h): 102.6 meq/L | DBIL (6 h): 0.1 mg/dL | GLC (6 h): 193.6 mg/dL | IP (6 h): 9.5 mg/dL | K (6 h): 4.2 meq/L | LDH (6 h): 140.8 IU/L | Na (6 h): 139.8 meq/L | PL (6 h): 157 mg/dL | RALB (6 h): 3.5 g/dL | TBIL (6 h): 0.2 mg/dL | TC (6 h): 89 mg/dL | TG (6 h): 51.8 mg/dL | TP (6 h): 5.6 g/dL | gamma-GTP (6 h): 1 IU/L | TERMINAL_BW (9 h): 204.9 g | APTT (9 h): 18.4 s | Bas (9 h): 0% | Eos (9 h): 1% | Fbg (9 h): 209.2 mg/dL | Hb (9 h): 13.4 g/dL | Ht (9 h): 39.4% | Lym (9 h): 76.8% | MCH (9 h): 21.6 pg | MCHC (9 h): 34.2% | MCV (9 h): 63.3 fL | Mono (9 h): 2.8% | Neu (9 h): 18.6% | PT (9 h): 13.2 s | Plat (9 h): 128.5 x10_4/uL | RBC (9 h): 621.8 x10_4/ul | Ret (9 h): 7.7% | WBC (9 h): 92.7 x10_2/uL | KIDNEY_L (9 h): 1 g | KIDNEY_R (9 h): 1 g | KIDNEY_TOTAL (9 h): 1.9 g | LIVER (9 h): 8.3 g | A/G (9 h): 1.6 | ALP (9 h): 866.2 IU/L | ALT (9 h): 32.6 IU/L | AST (9 h): 63.4 IU/L | BUN (9 h): 10.4 mg/dL | CRE (9 h): 0.3 mg/dL | Ca (9 h): 10.1 mg/dL | Cl (9 h): 103.4 meq/L | DBIL (9 h): 0.072 mg/dL | GLC (9 h): 204.6 mg/dL | IP (9 h): 10.8 mg/dL | K (9 h): 3.7 meq/L | LDH (9 h): 146.2 IU/L | Na (9 h): 141.4 meq/L | PL (9 h): 126.8 mg/dL | RALB (9 h): 3.3 g/dL | TBIL (9 h): 0.1 mg/dL | TC (9 h): 68.6 mg/dL | TG (9 h): 43 mg/dL | TP (9 h): 5.3 g/dL | gamma-GTP (9 h): 0.8 IU/L | TERMINAL_BW (24 h): 219.3 g | APTT (24 h): 17.7 s | Bas (24 h): 0% | Eos (24 h): 1% | Fbg (24 h): 206.4 mg/dL | Hb (24 h): 13.4 g/dL | Ht (24 h): 40.4% | Lym (24 h): 82.2% | MCH (24 h): 21.8 pg | MCHC (24 h): 33.3% | MCV (24 h): 65.7 fL | Mono (24 h): 3.2% | Neu (24 h): 13.4% | PT (24 h): 12.6 s | Plat (24 h): 126.3 x10_4/uL | RBC (24 h): 615.6 x10_4/ul | Ret (24 h): 7.7% | WBC (24 h): 97.9 x10_2/uL | KIDNEY_L (24 h): 0.9 g | KIDNEY_R (24 h): 1 g | KIDNEY_TOTAL (24 h): 1.9 g | LIVER (24 h): 10.2 g | A/G (24 h): 1.7 | ALP (24 h): 878.8 IU/L | ALT (24 h): 39.8 IU/L | AST (24 h): 68 IU/L | BUN (24 h): 14.2 mg/dL | CRE (24 h): 0.4 mg/dL | Ca (24 h): 10.3 mg/dL | Cl (24 h): 103.2 meq/L | DBIL (24 h): 0.084 mg/dL | GLC (24 h): 212 mg/dL | IP (24 h): 7.1 mg/dL | K (24 h): 3.7 meq/L | LDH (24 h): 136.2 IU/L | Na (24 h): 140.6 meq/L | PL (24 h): 135.2 mg/dL | RALB (24 h): 3.3 g/dL | TBIL (24 h): 0.1 mg/dL | TC (24 h): 77.4 mg/dL | TG (24 h): 62.6 mg/dL | TP (24 h): 5.4 g/dL | gamma-GTP (24 h): 0.8 IU/L
